Data taken from patent US20260191793A1, “HBV SPECIFIC EXOSOMES AND USES THEREOF” (priority 2022, published 2026).

Columns and labels:
Type in all cases: cell-based, Hepatitis B virus (HBV)
HBV DNA = assay: Sanger sequencing of HBV DNA fragments from treated HepDE19 cells; conditions: compared with gRNAc
Method: Following treatment with gRNA5/Cas9+gRNA9/Cas9, or gRNAc/Cas9 RNPs, genomic DNA was isolated from HepDE19 cells using the PureLink Genomic DNA Mini Kit (Cat #K182001, Invitrogen). DNA fragments containing the gRNA target sequences were amplified by qPCR using primers flanking the cleavage sites. The PCR products were confirmed using 1% agarose gel electrophoresis and purified using a QIAquick gel extraction kit (Cat #28704, Qiagen). Sequencing of the extracted DNA fragments was performed by GENEWIZ (Chelmsford, MA) using Sanger's sequencing method. The PCR primers used for the detection of gRNA5 and gRNA9 flanking regions are described above. The sequencing readouts were aligned with the gRNAc, which was compared to the HBV sequence in the database (ayw strain, Genbank accession number: NC_003977.2). The Chromas's software (Technelysium DNA sequencing software) was used to read the nucleotide peaks, and the alignment of two or more sequences was performed using the BLAST tool from NCBI-BLAST to compare the nucleotide sequences.
Following a successful CRISPR/Cas9 cleavage, DNA damage repair pathways are initiated, and nucleotide mutagenesis occurs in the targeted genome, introducing substitution mutations. […]

HBV in HepG2-NTCP cells = assay: Infection of HepG2-NTCP cells with supernatants of gRNA/Cas9-transfected HepDE19 cells (infectious HBV particles); conditions: HepG2-NTCP infected with supernatants of transfected HepDE19 cells, vs supernatants of gRNAc-transfected cells, qPCR
Method: To characterize the effects of synthetic gRNA5/Cas9 and gRNA9/Cas9 on HBV replication, the ability of HBV particles derived from HepDE19 cells that have been transfected with gRNA5, gRNA9, or gRNAc RNPs for 3 days to infect HepG2-NTCP cells was assessed. HepG2-NTCP cells were infected for 6 days with supernatants harvested from HepDE19 cells. Genomic DNA was isolated from HepG2-NTCP cells and used for qPCR quantification of HBV DNA.
HBV infectious particles were harvested from the supernatants of gRNA/Cas9-treated HepDE19 cells and used for the infection of HepG2-NTCP cells following a previously published method. Briefly, the supernatants of gRNA RNP-treated HepDE19 cells were harvested and concentrated using a PEG concentration kit (Cat #ab102538, Abcam, Waltham, MA). For HBV infection, 2.5×10^5 HepG2-NTCP cells were seeded in a 12-well plate and mixed with 10 μl concentrated HBV supernatants in 1 ml hepatocyte maintenance medium (HMM) (with 8% PEG8000 and 5% DMSO) at 37° C. for 16 h. The culture media were changed daily with fresh HMM. After 8 days, the cells were harvested and HBV DNA and cccDNA levels were determined as described below.
Total and protein-free HBV DNAs were extracted from whole cell lysate using the Hirt DNA method according to a previously published protocol. For HBV cccDNA analysis, the protein-free DNA was treated with 10 units of T5 exonuclease (NEB) at 37° C. for 30 min, followed by 95° C. for 5 min, and diluted 4-fold with nuclease-free water. Next, the cccDNA was cleaned with a DNA clean and concentrator kit (ZYMO Research, Irvine, CA) and used for PCR. HBV total DNA and cccDNA were analyzed by real-time PCR using a TaqMan PCR assay. The primers and probe used to amplify HBV total DNA were: HBV total DNA forward: 5′-[…]-3′ (SEQ ID NO: 58), reverse 5′-[…]-3′ (SEQ ID NO: 59), and internal probe: 5′-FAM-[…]-TAMRA-3′ (SEQ ID NO: 60). The primers and probe used to amplify HBV cccDNA (Genotype D, subtype ayw) were: forward: 5′-[…]-3′ (SEQ ID NO: 61), reverse 5′-[…]-3′ (SEQ ID NO: 62), and internal probe 5′-FAM-[…]-TAMRA-3′ (SEQ ID NO: 63). The PCR reactions were performed in 20 μl volumes and contained 2 μl DNA. The PCR conditions were: 95° C. for 10 min, followed by 45 cycles of 95° C. for 15 s and 64° C. for 30 s. The DNA levels were determined by the […] method and values were normalized to the control group.
Sodium taurocholate cotransporting polypeptide (NTCP) is a functional receptor for human HBV. The human hepatoma cell line HepG2 is not susceptible to HBV infection due to lack of NTCP; however, HepG2 cells transfected with NTCP expression plasmids (HepG2-NTCP) are susceptible to natural HBV infection. To further characterize the inhibitory effects of the synthetic gRNA/Cas9 RNPs on HBV replication, HepG2-NTCP cells were incubated with supernatants collected from gRNA/Cas9 RNP-transfected HepDE19 cell culture (after 4 days). Genomic DNA was isolated from HepG2-NTCP cells on day 8 after HBV infection and used for the assessment of HBV replication.

HBV cccDNA = assay: HBV-infected HepG2-NTCP cells directly transfected with gRNA/Cas9 RNPs, HBV cccDNA qPCR; conditions: direct transfection for 3 days
Excerpt: To test whether the synthetic gRNA/Cas9 can reduce newly formed HBV cccDNA in HepG2-NTCP cells, the cells with HBV particle-containing supernatants from HepDE19 cells (supernatants harvested 6 days after culture in Tet-free media) were infected. The HepG2-NTCP cells were infected with HBV particles for 6 days and then transfected with gRNA5, gRNA9, gRNA5 plus gRNA9 (in combination), or gRNAc RNPs for 3 days, followed by measuring HBV cccDNA. In another experiment, the infected HepG2-NTCP cells were incubated for 3 days with exosomes packaged with gRNA5, gRNA9, gRNA5 plus gRNA9 (in combination), or gRNAc RNPs, followed by measuring HBV cccDNA.
In another experiment, 1×10^6 HepG2-NTCP cells were infected using supernatants containing HBV particles from HepDE19 cells that were maintained for 6 days. The HBV-infected HepG2-NTCP cells were transfected with gRNA5, gRNA9, gRNA5 plus gRNA9, or gRNAc RNPs as described above. The cells were maintained for 3 days in a complete culture medium and then harvested for HBV cccDNA detection by qPCR.
Total and protein-free HBV DNAs were extracted from whole cell lysate using the Hirt DNA method according to a previously published protocol. […] HBV total DNA and cccDNA were analyzed by real-time PCR using a TaqMan PCR assay. […] The DNA levels were determined by the […] method and values were normalized to the control group.

| Sequence | mutations at gRNA-targeted sites of HBV DNA (Sanger sequencing) (HBV DNA) | HBV DNA in HepG2-NTCP cells (HBV in HepG2-NTCP cells) | HBV cccDNA in HepG2-NTCP cells (HBV in HepG2-NTCP cells) | HBV DNA in HepG2-NTCP cells (HBV in HepG2-NTCP cells; listed as gRNA9/Cas9) | HBV cccDNA in HepG2-NTCP cells (HBV in HepG2-NTCP cells; listed as gRNA9/Cas9) | HBV cccDNA levels (HBV cccDNA) | HBV DNA in HepG2-NTCP cells (HBV in HepG2-NTCP cells; listed as gRNA5/Cas9) | HBV cccDNA in HepG2-NTCP cells (HBV in HepG2-NTCP cells; listed as gRNA5/Cas9) |
| --- | --- | --- | --- | --- | --- | --- | --- | --- |
| GGTCTCCATGCGACGTGCAGNGG [gRNA9] | specific DNA indel mutations | significantly lower | remarkably lower | significantly fewer copies | significantly fewer copies | significantly reduced | – | – |
| GTTATCGCTGGATGTGTCTGNGG (guide GUUAUCGCUGGAUGUGUCUGNGG; complexed with Cas9 protein, chemistry not fully specified) [gRNA5, tested as synthetic gRNA/Cas9 RNP] | specific DNA indel mutations | significantly lower | remarkably lower | – | – | significantly reduced | significantly fewer copies | significantly fewer copies |
